Experimental data taken from patent US20260183295A1, “METHODS AND COMPOSITIONS FOR TREATING CANCER” (Onconova Therapeutics, Inc., priority 2022, published 2026).

Experiments:
Experiment in all cases: CETSA-MS, MDA-MB-231 intact cells
Assay type in all cases: cell-based
Details in all cases: 2 μM and 20 μM
CBX5 = molecular target: T1, CBX5 (Homo sapiens, UniProt P45973)
T1 construct: endogenous in cells; host or cells: MDA-MB-231
Experimental: (§1) TNBC MDA-MB-231 cells were grown at 37° C. in 5% CO2 and suspended in warm media and split into 4 equal volumes. […] Cells were incubated and then pelleted. Following pelleting, the cells were washed, resuspended, and heated in a thermal gradient. Following heating, the samples were flash frozen and lysed in lysis buffer, agitated by vortex, and sonicated prior to centrifugation. The supernatant was collected and denaturation buffer added. Cold acetone was then added to the cell samples, and protein collected by centrifugation. Pellets were then washed twice with cold acetone and the washed pellets prior to labeling.
(§2) The intact cell protein samples and lysate protein samples were then digested and labeled for mass spectrometry analysis according to the manufacturer's recommended protocols. Digested and labeled protein samples were analyzed by mass spectrometry proteomic analysis and the resulting protein targets were analyzed and plotted.

DDX21 = molecular target: T2, DDX21 (Homo sapiens, UniProt Q9NR30)
T2 construct: 148 targets unique to Compound 1 in MDA-MB-231 intact cells; endogenous in cells; host or cells: MDA-MB-231
Experimental: as §1, §2

CLUH = molecular target: T3, CLUH (Homo sapiens, UniProt O75153)
T3 construct: endogenous in cells; host or cells: MDA-MB-231
Experimental: as §1, §2

MRC2 = molecular target: T4, MRC2 (Homo sapiens, UniProt Q9UBG0)
T4 construct: endogenous in cells; host or cells: MDA-MB-231
Experimental: as §1, §2

FASTKD5 = molecular target: T5, FASTKD5 (Homo sapiens, UniProt Q7L8L6)
T5 construct: 148 targets unique to Compound 1 in MDA-MB-231 intact cells; endogenous in cells; host or cells: MDA-MB-231
Experimental: as §1, §2

WTAP = molecular target: T6, WTAP (Homo sapiens, UniProt Q15007)
T6 construct: endogenous in cells; host or cells: MDA-MB-231
Experimental: as §1, §2

DECR1 = molecular target: T7, DECR1 (Homo sapiens, UniProt Q16698)
T7 construct: endogenous in cells; host or cells: MDA-MB-231
Experimental: as §1, §2

SMU1 = molecular target: T8, SMU1 (Homo sapiens, UniProt Q2TAY7)
T8 construct: endogenous in cells; host or cells: MDA-MB-231
Experimental: as §1, §2

ILF3 = molecular target: T9, ILF3 (Homo sapiens, UniProt Q12906)
T9 construct: endogenous in cells; host or cells: MDA-MB-231
Experimental: as §1, §2

CERS2 = molecular target: T10, CERS2 (Homo sapiens, UniProt Q96G23)
T10 construct: endogenous in cells; host or cells: MDA-MB-231
Experimental: as §1, §2

INCENP = molecular target: T11, INCENP (Homo sapiens, UniProt Q9NQS7)
T11 construct: endogenous in cells; host or cells: MDA-MB-231
Experimental: as §1, §2

PTX3 = molecular target: T12, PTX3 (Homo sapiens, UniProt P26022)
T12 construct: endogenous in cells; host or cells: MDA-MB-231
Experimental: as §1, §2

AVEN = molecular target: T13, AVEN (Homo sapiens, UniProt Q9NQS1)
T13 construct: endogenous in cells; host or cells: MDA-MB-231
Experimental: as §1, §2

NAP1L1 = molecular target: T14, NAP1L1 (Homo sapiens, UniProt P55209)
T14 construct: endogenous in cells; host or cells: MDA-MB-231
Experimental: as §1, §2

UFL1 = molecular target: T15, UFL1 (Homo sapiens, UniProt O94874)
T15 construct: endogenous in cells; host or cells: MDA-MB-231
Experimental: as §1, §2

AIFM2 = molecular target: T16, AIFM2 (Homo sapiens, UniProt Q9BRQ8)
T16 construct: endogenous in cells; host or cells: MDA-MB-231
Experimental: as §1, §2

MPHOSPH8 = molecular target: T17, MPHOSPH8 (Homo sapiens, UniProt Q99549)
T17 construct: endogenous in cells; host or cells: MDA-MB-231
Experimental: as §1, §2

IGFBP4 = molecular target: T18, IGFBP4 (Homo sapiens, UniProt P22692)
T18 construct: endogenous in cells; host or cells: MDA-MB-231
Experimental: as §1, §2

CELF1 = molecular target: T19, CELF1 (Homo sapiens, UniProt Q92879)
T19 construct: endogenous in cells; host or cells: MDA-MB-231
Experimental: as §1, §2

STK10 = molecular target: T20, STK10 (Homo sapiens, UniProt O94804)
T20 construct: endogenous in cells; host or cells: MDA-MB-231
Experimental: as §1, §2

MAN2A1 = molecular target: T21, MAN2A1 (Homo sapiens, UniProt Q16706)
T21 construct: endogenous in cells; host or cells: MDA-MB-231
Experimental: as §1, §2

LEO1 = molecular target: T22, LEO1 (Homo sapiens, UniProt Q8WVC0)
T22 construct: endogenous in cells; host or cells: MDA-MB-231
Experimental: as §1, §2

AXL = molecular target: T23, AXL (Homo sapiens, UniProt P30530)
T23 construct: endogenous in cells; host or cells: MDA-MB-231
Experimental: as §1, §2

NAPG = molecular target: T24, NAPG (Homo sapiens, UniProt Q99747)
T24 construct: endogenous in cells; host or cells: MDA-MB-231
Experimental: as §1, §2

ECE1 = molecular target: T25, ECE1 (Homo sapiens, UniProt P42892)
T25 construct: 148 targets unique to Compound 1 in MDA-MB-231 intact cells; endogenous in cells; host or cells: MDA-MB-231
Experimental: as §1, §2

CDK12 = molecular target: T26, CDK12 (Homo sapiens, UniProt Q9NYV4)
T26 construct: endogenous in cells; host or cells: MDA-MB-231
Experimental: as §1, §2

MTG1 = molecular target: T27, MTG1 (Homo sapiens, UniProt Q9BT17)
T27 construct: endogenous in cells; host or cells: MDA-MB-231
Experimental: as §1, §2

MARK2 = molecular target: T28, MARK2 (Homo sapiens, UniProt Q7KZI7)
T28 construct: endogenous in cells; host or cells: MDA-MB-231
Experimental: as §1, §2

SIK2 = molecular target: T29, SIK2 (Homo sapiens, UniProt Q9H0K1)
T29 construct: endogenous in cells; host or cells: MDA-MB-231
Experimental: as §1, §2

DNAJC13 = molecular target: T30, DNAJC13 (Homo sapiens, UniProt O75165)
T30 construct: 148 targets unique to Compound 1 in MDA-MB-231 intact cells; endogenous in cells; host or cells: MDA-MB-231
Experimental: as §1, §2

LRPPRC = molecular target: T31, LRPPRC (Homo sapiens, UniProt P42704)
T31 construct: endogenous in cells; host or cells: MDA-MB-231
Experimental: as §1, §2

HNRNPU = tested on: HNRNPU
Experimental: as §1, §2

APLP2 = molecular target: T32, APLP2 (Homo sapiens, UniProt Q06481)
T32 construct: endogenous in cells; host or cells: MDA-MB-231
Experimental: as §1, §2

HNRNPA3 = molecular target: T33, HNRNPA3 (Homo sapiens, UniProt P51991)
T33 construct: 148 targets unique to Compound 1 in MDA-MB-231 intact cells; endogenous in cells; host or cells: MDA-MB-231
Experimental: as §1, §2

ELL = molecular target: T34, ELL (Homo sapiens, UniProt P55199)
T34 construct: 148 targets unique to Compound 1 in MDA-MB-231 intact cells; endogenous in cells; host or cells: MDA-MB-231
Experimental: as §1, §2

COG8 = molecular target: T35, COG8 (Homo sapiens, UniProt Q96MW5)
T35 construct: endogenous in cells; host or cells: MDA-MB-231
Experimental: as §1, §2

Measured: Group (CETSA-MS thermal shift)

T16 sequence (Q9BRQ8 whole entry): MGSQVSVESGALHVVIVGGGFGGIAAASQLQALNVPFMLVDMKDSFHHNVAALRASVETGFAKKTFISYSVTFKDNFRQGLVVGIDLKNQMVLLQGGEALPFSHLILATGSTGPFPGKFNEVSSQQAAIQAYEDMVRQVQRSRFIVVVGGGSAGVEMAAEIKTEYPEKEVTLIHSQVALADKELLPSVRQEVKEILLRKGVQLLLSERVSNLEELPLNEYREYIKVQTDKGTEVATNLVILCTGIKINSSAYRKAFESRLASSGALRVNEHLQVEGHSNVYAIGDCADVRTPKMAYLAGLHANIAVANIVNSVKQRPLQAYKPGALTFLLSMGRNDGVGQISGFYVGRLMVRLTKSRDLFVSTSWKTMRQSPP
T21 sequence (Q16706 whole entry): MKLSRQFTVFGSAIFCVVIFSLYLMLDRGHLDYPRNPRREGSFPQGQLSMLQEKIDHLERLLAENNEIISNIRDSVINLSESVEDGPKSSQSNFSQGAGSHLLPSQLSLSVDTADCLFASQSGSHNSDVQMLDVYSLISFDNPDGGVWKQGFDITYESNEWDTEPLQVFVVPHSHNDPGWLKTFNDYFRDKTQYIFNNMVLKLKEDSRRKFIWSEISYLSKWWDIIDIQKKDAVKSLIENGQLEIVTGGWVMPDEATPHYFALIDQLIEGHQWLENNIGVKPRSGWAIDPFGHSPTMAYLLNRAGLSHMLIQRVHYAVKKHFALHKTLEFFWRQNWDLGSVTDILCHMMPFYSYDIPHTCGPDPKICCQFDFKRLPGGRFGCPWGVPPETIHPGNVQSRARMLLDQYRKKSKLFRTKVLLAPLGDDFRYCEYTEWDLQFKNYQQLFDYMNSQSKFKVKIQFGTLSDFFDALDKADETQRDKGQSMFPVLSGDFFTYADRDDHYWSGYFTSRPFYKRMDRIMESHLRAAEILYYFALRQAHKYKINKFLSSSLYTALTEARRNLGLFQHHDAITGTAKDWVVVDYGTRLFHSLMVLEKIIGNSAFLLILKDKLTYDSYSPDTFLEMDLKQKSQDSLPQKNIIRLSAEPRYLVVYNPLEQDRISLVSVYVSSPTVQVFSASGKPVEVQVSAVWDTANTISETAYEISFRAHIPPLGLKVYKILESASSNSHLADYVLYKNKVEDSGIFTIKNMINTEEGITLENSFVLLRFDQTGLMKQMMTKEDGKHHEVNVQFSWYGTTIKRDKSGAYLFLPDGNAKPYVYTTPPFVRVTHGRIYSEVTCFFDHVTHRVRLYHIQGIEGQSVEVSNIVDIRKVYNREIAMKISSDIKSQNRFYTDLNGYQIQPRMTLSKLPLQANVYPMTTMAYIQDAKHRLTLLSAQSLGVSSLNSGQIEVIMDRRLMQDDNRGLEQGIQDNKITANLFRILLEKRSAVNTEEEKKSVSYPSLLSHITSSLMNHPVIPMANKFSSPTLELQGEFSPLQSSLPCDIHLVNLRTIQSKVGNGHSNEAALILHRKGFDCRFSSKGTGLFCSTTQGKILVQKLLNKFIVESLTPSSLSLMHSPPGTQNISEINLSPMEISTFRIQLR
T10 sequence (Q96G23 whole entry): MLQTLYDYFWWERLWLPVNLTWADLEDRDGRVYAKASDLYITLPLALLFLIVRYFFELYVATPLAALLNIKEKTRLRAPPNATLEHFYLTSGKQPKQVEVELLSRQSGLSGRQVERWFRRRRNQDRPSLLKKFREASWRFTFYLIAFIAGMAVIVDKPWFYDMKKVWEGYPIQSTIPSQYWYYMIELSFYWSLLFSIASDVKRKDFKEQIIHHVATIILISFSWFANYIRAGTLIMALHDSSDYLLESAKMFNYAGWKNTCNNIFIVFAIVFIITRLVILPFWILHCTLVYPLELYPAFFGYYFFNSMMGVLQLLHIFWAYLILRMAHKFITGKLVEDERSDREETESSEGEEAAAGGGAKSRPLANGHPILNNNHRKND
T9 sequence (Q12906 whole entry): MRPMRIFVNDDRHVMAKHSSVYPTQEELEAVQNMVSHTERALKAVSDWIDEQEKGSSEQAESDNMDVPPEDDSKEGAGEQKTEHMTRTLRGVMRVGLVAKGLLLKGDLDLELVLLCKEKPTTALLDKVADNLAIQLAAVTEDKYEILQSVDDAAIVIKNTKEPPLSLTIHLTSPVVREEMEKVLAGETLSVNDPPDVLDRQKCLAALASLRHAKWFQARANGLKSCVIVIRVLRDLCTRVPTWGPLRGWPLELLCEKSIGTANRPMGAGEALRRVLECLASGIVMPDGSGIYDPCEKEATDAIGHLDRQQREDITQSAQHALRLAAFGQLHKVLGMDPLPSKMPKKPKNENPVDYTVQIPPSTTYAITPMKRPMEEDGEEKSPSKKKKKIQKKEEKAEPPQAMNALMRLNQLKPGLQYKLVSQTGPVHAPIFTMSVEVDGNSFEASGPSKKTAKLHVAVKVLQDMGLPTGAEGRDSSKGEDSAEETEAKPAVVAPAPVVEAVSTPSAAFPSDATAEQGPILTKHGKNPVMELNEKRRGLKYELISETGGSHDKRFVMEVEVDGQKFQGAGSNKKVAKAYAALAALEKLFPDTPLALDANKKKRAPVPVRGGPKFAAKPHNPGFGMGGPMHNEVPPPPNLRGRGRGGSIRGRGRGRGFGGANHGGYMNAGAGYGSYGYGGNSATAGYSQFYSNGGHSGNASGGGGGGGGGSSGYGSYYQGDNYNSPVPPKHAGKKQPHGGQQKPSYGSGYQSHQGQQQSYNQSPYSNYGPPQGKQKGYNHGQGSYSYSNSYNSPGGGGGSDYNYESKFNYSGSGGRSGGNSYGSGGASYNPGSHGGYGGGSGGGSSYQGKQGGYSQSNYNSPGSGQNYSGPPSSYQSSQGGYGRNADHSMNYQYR
T20 sequence (O94804 whole entry): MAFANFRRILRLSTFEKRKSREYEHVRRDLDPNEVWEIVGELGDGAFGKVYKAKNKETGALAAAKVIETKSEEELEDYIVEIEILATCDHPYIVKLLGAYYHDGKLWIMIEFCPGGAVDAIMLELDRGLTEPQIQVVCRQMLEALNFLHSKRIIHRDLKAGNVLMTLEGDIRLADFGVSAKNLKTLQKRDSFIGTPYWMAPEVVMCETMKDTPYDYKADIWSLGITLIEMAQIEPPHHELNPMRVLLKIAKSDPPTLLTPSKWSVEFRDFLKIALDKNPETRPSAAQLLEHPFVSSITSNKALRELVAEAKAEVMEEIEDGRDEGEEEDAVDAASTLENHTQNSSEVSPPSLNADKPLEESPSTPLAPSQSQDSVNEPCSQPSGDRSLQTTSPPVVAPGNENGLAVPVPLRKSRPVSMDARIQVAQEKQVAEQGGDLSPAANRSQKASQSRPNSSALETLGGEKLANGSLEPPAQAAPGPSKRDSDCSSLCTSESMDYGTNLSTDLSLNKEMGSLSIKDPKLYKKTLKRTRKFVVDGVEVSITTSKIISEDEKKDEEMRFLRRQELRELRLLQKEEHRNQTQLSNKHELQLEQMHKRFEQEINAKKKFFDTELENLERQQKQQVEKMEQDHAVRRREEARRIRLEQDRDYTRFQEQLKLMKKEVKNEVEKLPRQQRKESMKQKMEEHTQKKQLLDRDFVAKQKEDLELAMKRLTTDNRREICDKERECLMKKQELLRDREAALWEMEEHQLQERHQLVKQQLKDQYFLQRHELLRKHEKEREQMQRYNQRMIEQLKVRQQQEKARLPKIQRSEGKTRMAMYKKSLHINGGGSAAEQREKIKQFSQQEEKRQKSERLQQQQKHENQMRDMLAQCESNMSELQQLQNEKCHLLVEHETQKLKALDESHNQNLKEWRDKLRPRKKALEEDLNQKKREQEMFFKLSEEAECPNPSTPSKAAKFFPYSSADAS
T11 sequence (Q9NQS7 whole entry): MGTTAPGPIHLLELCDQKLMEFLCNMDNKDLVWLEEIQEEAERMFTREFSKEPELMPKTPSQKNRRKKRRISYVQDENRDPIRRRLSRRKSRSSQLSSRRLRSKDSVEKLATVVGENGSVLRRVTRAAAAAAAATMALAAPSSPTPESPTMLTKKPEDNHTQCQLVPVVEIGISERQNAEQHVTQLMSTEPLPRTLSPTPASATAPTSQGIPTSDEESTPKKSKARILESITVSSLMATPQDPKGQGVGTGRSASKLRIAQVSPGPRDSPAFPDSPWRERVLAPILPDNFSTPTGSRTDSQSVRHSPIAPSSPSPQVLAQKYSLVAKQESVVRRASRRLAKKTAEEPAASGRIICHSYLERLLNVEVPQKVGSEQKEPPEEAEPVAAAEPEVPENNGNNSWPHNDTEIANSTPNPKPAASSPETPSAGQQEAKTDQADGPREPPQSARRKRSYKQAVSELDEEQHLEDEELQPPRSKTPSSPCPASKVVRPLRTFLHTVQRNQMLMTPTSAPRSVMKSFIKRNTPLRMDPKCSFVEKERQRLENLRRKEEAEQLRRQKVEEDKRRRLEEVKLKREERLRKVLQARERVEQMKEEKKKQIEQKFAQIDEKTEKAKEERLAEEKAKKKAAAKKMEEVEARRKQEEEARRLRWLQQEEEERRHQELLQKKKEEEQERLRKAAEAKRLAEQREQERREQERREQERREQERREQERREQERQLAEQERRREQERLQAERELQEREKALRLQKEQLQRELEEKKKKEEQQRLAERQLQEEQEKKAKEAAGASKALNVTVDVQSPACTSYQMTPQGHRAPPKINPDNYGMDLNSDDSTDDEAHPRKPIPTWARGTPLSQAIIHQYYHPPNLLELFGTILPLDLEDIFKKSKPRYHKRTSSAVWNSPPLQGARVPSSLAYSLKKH
T7 sequence (Q16698 35-335): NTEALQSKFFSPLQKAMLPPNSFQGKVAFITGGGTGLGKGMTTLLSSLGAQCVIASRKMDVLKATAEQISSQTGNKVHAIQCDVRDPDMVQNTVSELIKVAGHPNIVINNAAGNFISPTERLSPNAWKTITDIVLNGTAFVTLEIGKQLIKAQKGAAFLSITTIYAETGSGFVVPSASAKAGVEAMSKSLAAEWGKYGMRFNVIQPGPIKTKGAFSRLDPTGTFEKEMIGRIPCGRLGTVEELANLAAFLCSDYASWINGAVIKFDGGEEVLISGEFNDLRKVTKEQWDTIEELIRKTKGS

CN1CCN(c2ccc(Nc3ncc4cc(C#N)c(=O)n(C5CCCC5)c4n3)cc2)CC1 [Compound 1, 8-cyclopentyl-2-((4-(4-methylpiperazin-1-yl)phenyl)amino)-7-oxo-7,8-dihydropyrido[2,3-d]pyrimidine-6-carbonitrile]
Destabilization: DECR1 | AVEN | AIFM2 | CDK12 | MARK2 | COG8
Stabilization: all other assays above
